Measurements taken from patent US20200155607A1, “Enriched Cellular Compositions and Therapeutic Use” (Abraham J and Phyllis Katz Cord Blood Foundation, priority 2017, published 2020).

System: human dermal fibroblast
Test: Fibroblast proliferation by MTT assay
Format: cell-based
Conditions: mitomycin c 10 or 25 μg/ml for 30 or 60 min; MTT at 17 hrs
Description: The results from two different studies investigating the effect of mitomycin c on human dermal fibroblast proliferation are shown in FIGS. 5A-5B. Fibroblast cells were plated out in complete media and then treated with mitomycin c (10 μg/ml or 25 μg/ml) for 30 or 60 min. Mitomcyin c was washed out and starvation media was added. Positive controls are 10% FBS and FGF (25 ng/ml). The ODs from the blank wells were subtracted out. Proliferation was measured by MTT assay at 17 hrs.

## CO[C@@]12[C@H](COC(N)=O)C3=C(C(=O)C(C)=C(N)C3=O)N1C[C@@H]1N[C@@H]12 [Mitomycin c, mitomycin c]
  fibroblast proliferation (MTT): appears to inhibit fibroblast proliferation
